Here are results for two molecules from US20230270749A1, “THERMO-SENSITIVE PERMEATION ENHANCING FORMULATIONS FOR DRUG DELIVERY” (Children's Medical Center Corporation, priority 2020, published 2023).

Data set [1] can be described thus: Solubility / dissolution in poloxamer-CPE formulations. In kind it is physicochemical.
Data set [2] in a line: Systemic exposure: ciprofloxacin in plasma after gel application. It is filed as in vivo, chinchilla. Particulars: after hydrogel treatment. The method, then:
The blood levels of Cip were investigated by collection of plasma samples at predetermined intervals from the transverse sinuses of chinchillas after hydrogel treatment.
NTHi OM chinchilla model and pharmacokinetics. All procedures and manipulations were performed using sedation analgesia under isoflurane chamber induction followed by mask inhalation of 1-3% isoflurane in accordance with approved IACUC protocols at Boston Children's Hospital. […] Isolates of NTHi grown to the mid-log phase were diluted in Hanks' balanced salt solution (HBSS), and about 25 to 75 CFU in […] were directly introduced into each middle ear through the dorsal aspect of the tympanic bullae under aseptic conditions. […] Serial plasma samples were also obtained through the […] during the experiment to determine systemic drug levels.

The format of data set [3] is in vivo, chinchilla. Particulars: healthy / OM infected chinchillas. The method, then: Histopathology. Hydrogel formulations were administered onto the tympanic membrane of live healthy/OM chinchillas. After 7 days later, they were euthanized as described elsewhere. The TMs were then excised and immediately fixed in 10% neutral buffered formalin overnight. The sectioned TMs (˜10 μm thick) were stained with hematoxylin and eosin, and evaluated by light microscopy in a blinded fashion.

Another data set has as its system H. influenza. Particulars: stated without test or source; cited from earlier work.
A further data set relates to S. pneumoniae. Particulars: stated without test or source; cited from earlier work.

As to `CO/N=C(\C(=O)N[C@@H]1C(=O)N2C(C(=O)O)=C(CSc3nc(=O)c(=O)[nH]n3C)CS[C@H]12)c1csc(N)n1` [CTX, ceftriaxone sodium], the “highest amount of CTX that can be dissolved in the P188-CPEs formulation while maintaining the desired rheological properties” value in data set [1] amounted to 42.6%. The “highest amount of CTX that can be dissolved in the P188-CPEs formulation as a powder form within a short time (<1 minute)” value in data set [1] (powder form, <1 minute) came to 28%.
As to `O=C(O)c1cn(C2CC2)c2cc(N3CCNCC3)c(F)cc2c1=O` [ciprofloxacin], the “ciprofloxacin in the bloodstream at any time point throughout the course of treatment” value is “no Ciprofloxacin was detectable” in data set [2] and “no Cip was detectable” in data set [2] (listed as Cip). Besides, in data set [3], the “appearance of H&E-stained TM sections after 7 days” value was “much thicker than healthy TM”. The “minimum inhibitory concentration for middle ear infections” value in the data set on H. influenza and in the data set with S. pneumoniae was “about 4 μg/mL” in each case.
